Laboratory results taken from patent US7842703B2, “Substituted benzofused derivatives and their use as vanilloid receptor ligands” (Glenmark Pharmaceuticals S.A., priority 2005, dated 2010).
pIC50: −log10 of the molar value. Counter-ions that a name gives are not always drawn.

Target: T1, Human TRPV1 expressing CHO cells (Homo sapiens, UniProt Q8NER1)
T1 construct: expressed in transfected cells; host or cells: CHO cells under G-418 selection
Test: Screening for TRPV1 antagonist using the 45Calcium uptake assay (inhibition of capsaicin induced cellular uptake of radioactive calcium)
Assay type: cell-based
Settings: for pIC50: inhibition of capsaicin (250 nM) induced ^45Ca uptake; for % inhibition of ^45Ca uptake at 1 μM / inhibition at 1 µM: test compound 1 μM, capsaicin 250 nM, relative to maximum ^45Ca uptake induced by capsaicin alone; for inhibition at 1 µM: CHO
Procedure: The inhibition of TRPV1 receptor activation was followed as inhibition of capsaicin induced cellular uptake of radioactive calcium which represents calcium influx exclusively through the plasma membrane associated TRPV1 receptor.
Stock solution of capsaicin was made in ethanol and test compounds in 100% DMSO. Stock solutions were diluted to appropriate final concentrations in assay buffer keeping the final DMSO concentration between 0.1% and 0.55%.
^45Ca was used at a final concentration of 2.5 μCi/ml (^45Ca, ICN).
Assay buffer was composed of F-12 DMEM medium supplemented with 1.8 mM CaCl2 (final conc.) and 0.1% Bovine serum albumin. (BSA from SIGMA)
Wash buffer was tyrodes solution supplemented with 0.1% BSA and 1.8 mM calcium. Lysis buffer contained 50 mM Tris-HCl, pH7.5, 150 mM NaCl, 1% Triton X-100, 0.5% deoxycholate and 0.1% Sodium dodicyl sulphate (SDS, SIGMA)
Assay was carried out with some modifications the of procedure as described by Toth et. al. (See Toth A et. al., Life Sciences 73 p 487-498, 2003). Human TRPV1 expressing CHO cells were grown in F-12 DMEM (Dulbecco's modified Eagle's medium—GIBCO) medium with 10% FBS (fetal bovine serum Hyclone), 1% penicillin-streptomycin solution, 400 μg/ml of G-418. Cells were seeded 48 h prior to the assay in 96 well plates so as to get ˜50,000 cells per well on the day of experiment. Plates were incubated at 37° C. in the presence of 5% CO2. Cells were then washed twice with 200 μl of assay buffer and re-suspended in 144 μl of the same. Assay was carried out at 30° C. in total volume of 200 μl. Test compounds were added to the cells fifteen minutes before addition of capsaicin, Final concentration of capsaicin in the assay was 250 nM. After 5 minutes of agonist treatment, drug was washed out and wells rinsed with 300 μl of ice cold wash buffer 3×. The cells were lysed in 50 μl lysis buffer for 20 min. 40 μl of cell lysate was mixed with 150 μl of Microscint PS, left overnight for equilibration. Radioactivity in samples was measured as counts per minute (cpm) using Packard Biosciences Top Count. The drug/vehicle/capsaicin treated ^45Ca uptake values were normalized over basal ^45Ca value. Data was expressed as % inhibition of ^45Ca uptake by test compound with respect to maximum ^45Ca uptake induced by capsaicin alone. IC50 value was calculated from dose response curve by nonlinear regression analysis using GraphPadPRISM software.

T1 sequence (Q8NER1 whole entry): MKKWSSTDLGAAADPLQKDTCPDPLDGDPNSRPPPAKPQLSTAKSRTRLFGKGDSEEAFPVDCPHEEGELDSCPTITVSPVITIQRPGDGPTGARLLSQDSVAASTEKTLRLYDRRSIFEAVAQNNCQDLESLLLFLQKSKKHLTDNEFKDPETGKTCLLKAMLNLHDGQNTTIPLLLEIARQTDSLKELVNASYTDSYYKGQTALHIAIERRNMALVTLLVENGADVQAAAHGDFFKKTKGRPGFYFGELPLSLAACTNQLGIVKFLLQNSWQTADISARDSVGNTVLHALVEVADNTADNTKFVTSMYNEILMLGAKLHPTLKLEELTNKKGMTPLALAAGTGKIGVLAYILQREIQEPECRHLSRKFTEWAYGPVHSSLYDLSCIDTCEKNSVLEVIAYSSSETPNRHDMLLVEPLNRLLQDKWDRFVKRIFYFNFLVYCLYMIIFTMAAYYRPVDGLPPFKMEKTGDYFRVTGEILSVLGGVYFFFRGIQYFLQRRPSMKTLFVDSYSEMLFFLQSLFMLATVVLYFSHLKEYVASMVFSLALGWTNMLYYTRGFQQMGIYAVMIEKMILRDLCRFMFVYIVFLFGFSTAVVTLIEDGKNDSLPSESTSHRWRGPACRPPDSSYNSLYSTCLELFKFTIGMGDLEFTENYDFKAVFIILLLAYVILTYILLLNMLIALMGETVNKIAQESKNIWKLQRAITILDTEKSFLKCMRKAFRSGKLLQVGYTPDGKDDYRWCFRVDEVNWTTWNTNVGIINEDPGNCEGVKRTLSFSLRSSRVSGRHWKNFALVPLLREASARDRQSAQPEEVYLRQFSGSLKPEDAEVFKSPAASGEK

Compound	pIC50	% inhibition of ^45Ca uptake at 1 μM [%]	inhibition at 1 µM [%]
O=C(Nc1ccc(Cl)c2cnccc12)NC1CC2(CCC2)Oc2ccccc21 (racemic) [Example 6, (±) 1-(3,4-dihydro-spiro[2H-1-benzopyran-2,1′-cyclobutane]-4-yl)-3-(8-chloroisoquinolin-5-ylurea]	6.47		> 50
COc1ccc2nc(NC(=O)NC3CC4(CCC4)Oc4ccccc43)sc2c1 (racemic) [Example 14, (±) 1-(3,4-Dihydro-spiro[2H-1-benzopyran-2,1′-cyclobutane]-4-yl)-3-(6-methoxy-1,3-benzothiazol-2-yl)urea]			< 50
O=C(Nc1cccc2nsnc12)NC1CC2(CCC2)Oc2ccccc21 (centres unmarked) [Example 29, N-2,1,3-benzothiadiazol-4-yl-N′-3,3′,4,4′-tetrahydro-2′H-spiro[chromene-2,1′-cyclobutan]-4-ylurea (N-2,1,3-benzothiadiazol-4-yl-N′-3,4-dihydro-2H-spiro[chromene-2,1′-cyclobutan]-4-ylurea)]		<50	
O=C(Nc1nc2cc(Cl)ccc2o1)NC1CC2(CCC2)Oc2ccccc21 (racemic) [Example 23, (±) 1-(3,4-Dihydro-spiro[2H-1-benzopyran-2,1′-cyclobutane]-4-yl)-3-(5-chloro-1,3-benzoxazol-2-yl)urea]			< 50
O=C(Nc1nc2ccc(Cl)cc2s1)NC1CC2(CCC2)Oc2ccccc21 (racemic) [Example 11, (±) 1-(3,4-Dihydro-spiro[2H-1-benzopyran-2,1′-cyclobutane]-4-yl)-3-(6-chloro-1,3-benzothiazol-2-yl)urea]			< 50
O=C(NCc1ccc(C(F)(F)F)cc1)N[C@H]1CC2(CCC2)Oc2ccccc21 [Example 38, 1-((S)-3,4-Dihydrospiro[2H-1-benzopyran-2,1′-cyclobutan]-4-yl)-3-(4-trifluoromethylbenzyl)urea]			10.9
Cn1cc2cc(NC(=O)NC3CC4(CCC4)Oc4ccccc43)ccc2n1 (racemic) [Example 15, (±) 1-(3,4-Dihydro-spiro[2H-1-benzopyran-2,1′-cyclobutane]-4-yl)-3-(2-methyl-2H-indazol-5-yl)urea]			< 50
CC(C)(C)c1nnc(NC(=O)NC2CC3(CCC3)Oc3ccccc32)s1 (racemic) [Example 16, (±) 1-(3,4-Dihydro-spiro[2H-1-benzopyran-2,1′-cyclobutane]-4-yl)-3-(5-tert-butyl-1,3,4-thiadiazol-2-yl)urea]	6.10		> 50
O=C(Nc1csc2cnccc12)NC1CC2(CCC2)Oc2ccccc21 (racemic) [Example 20, (±) 1-(3,4-Dihydro-spiro[2H-1-benzopyran-2,1′-cyclobutane]-4-yl)-3-(thieno[2,3-c]pyridine-3-ylurea]		<50	
COc1ccc2c(c1)OC1(CCC1)CC2NC(=O)Nc1cccc2cnccc12 (racemic) [Example 47, (±) 1-(3,4-Dihydro-7-methoxy-spiro[2H-1-benzopyran-2,1′-cyclobutane]-4-yl)-3-(isoquinolin-5-yl)urea]	9.68		> 50
O=C(NCc1cccnc1)NC1CC2(CCC2)Oc2ccccc21 (racemic) [Example 31, (±) 1-(3,4-Dihydro-spiro[2H-1-benzopyran-2,1′-cyclobutan]-4-yl)-3-(pyridin-3-ylmethyl)urea]			< 50
O=C(Nc1ncc(-c2ccc(Br)cc2)s1)NC1CC2(CCC2)Oc2ccccc21 (racemic) [Example 17, (±) 1-(3,4-Dihydro-spiro[2H-1-benzopyran-2,1′-cyclobutane]-4-yl)-3-[5-(4-bromophenyl)-1,3-thiazol-2-yl])urea]		<50	
(±) 1-(3,4-Dihydro-6-fluoro-spiro[2H-1-benzopyran-2,1′-cyclobutane]-4-yl)-3-(isoquinolin-5-yl)urea [Example 50]	8.11	>50	
O=C(Nc1cccc2cnccc12)NC1CC2(CCC2)Oc2c(F)cc(F)cc21 (centres unmarked) [Example 48, 1-(6,8-Difluoro-3,4-dihydro-spiro[2H-1-benzopyran-2,1′-cyclobutane]-4-yl)-3-(isoquinolin-5-yl)urea]	7.79		> 50
O=C(Nc1cccc2cnccc12)NC1CC2(CCC2)Oc2ccc(O)cc21 (racemic) [Example 45, (±) 1-(3,4-Dihydro-6-hydroxy-spiro[2H-1-benzopyran-2,1′-cyclobutane]-4-yl)-3-(isoquinolin-5-yl)urea]			< 50
(±) 1-(3,4-Dihydro-spiro[2H-1-benzopyran-2,1′-cyclobutane]-4-yl)-3-(6-fluoro-1,3-benzothiazol-2-yl)urea [Example 12]		<50	

The remaining lines, values ahead:

pIC50	% inhibition of ^45Ca uptake at 1 μM [%]	inhibition at 1 µM [%]	Compound
6.65	>50		O=C(Nc1cccc2cnccc12)NC1CC2(CCC2)S(=O)(=O)c2ccccc21 (racemic) [Example 82, (±) 1-(1,1-dioxo-3,4-dihydro-spiro[2H-1-benzothiopyran-2,1′cyclobutane]-4-yl)-3-(isoquinolin-5-yl)urea]
5.90		> 50	Cc1cc2c(NC(=O)NC3CC4(CCC4)Oc4ccc(Cl)cc43)cccc2cn1 (racemic) [Example 73, (±) 1-(6-Chloro-3,4-dihydro-spiro[2H-1-benzopyran-2,1′-cyclobutane]-4-yl)-3-(3-methylisoquinolin-5-yl)urea]
6.34		> 50	O=C(Nc1cccc2cnccc12)NC1CC2(CCC2)Oc2c(Cl)cc(Cl)cc21 (racemic) [Example 66, (±) 1-(6,8-Dichloro-3,4-dihydro-spiro[2H-1-benzopyran-2,1′-cyclobutane]-4-yl)-3-(isoquinolin-5-yl)urea]
6.35		> 50	Cc1cc2c(NC(=O)NC3CC4(CCC4)Oc4cc(Cl)ccc43)cccc2cn1 (racemic) [Example 57, (±) 1-(7-Chloro-3,4-dihydro-spiro[2H-1-benzopyran-2,1′-cyclobutane]-4-yl)-3-(3-methylisoquinolin-5-yl)urea]
6.23		> 50	COc1ccc2c(c1)C(NC(=O)Nc1cccc3cnccc13)CC1(CCC1)O2 (racemic) [Example 51, (±) 1-(3,4-Dihydro-6-methoxy-spiro[2H-1-benzopyran-2,1′-cyclobutane]-4-yl)-3-(isoquinolin-5-yl)urea]
	<50		S=C(Nc1cccc2ccncc12)NC1CC2(CCC2)Oc2ccccc21 (centres unmarked) [Example 83, N′-isoquinolin-8-yl-N-3,3′,4,4′-tetrahydro-2′H-spiro[chromene-2,1′-cyclobutan]-4-ylthiourea (N′-isoquinolin-8-yl-N-3,4-dihydro-2H-spiro[chromene-2,1′-cyclobutan]-4-ylthiourea)]
		< 50	O=C(Nc1cccc2cnccc12)NC1CC2(CCC2)Oc2cc(Cl)ccc21 (single isomer, unassigned; (-)) [Example 76, (−) 1-(7-Chloro-3,4-dihydro-spiro[2H-1-benzopyran-2,1′-cyclobutane]-4-yl)-3-(isoquinolin-5-yl)urea]
7.64		> 50	Cc1nccc2c(NC(=O)NC3CC4(CCC4)Oc4ccc(F)cc43)cccc12 (racemic) [Example 75, (±) 1-(3,4-Dihydro-6-fluoro-spiro[2H-1-benzopyran-2,1′-cyclobutane]-4-yl)-3-(1-methylisoquinolin-5-yl)urea]
6.39		> 50	O=C(Nc1cccc2cnccc12)NC1CC2(CCC2)Oc2ccc(Br)cc21 (racemic) [Example 65, (±) 1-(6-Bromo-3,4-dihydro-spiro[2H-1-benzopyran-2,1′-cyclobutane]-4-yl)-3-(isoquinolin-5-yl)urea]
6.23		> 50	O=C(Nc1ccc(Cl)c2cnccc12)NC1CC2(CCC2)Oc2ccc(F)cc21 (racemic) [Example 71, (±) 1-(6-Fluoro-3,4-dihydro-spiro[2H-1-benzopyran-2,1′-cyclobutane]-4-yl)-3-(8-chloroisoquinolin-5-yl)urea]
8.65		> 50	O=C(Nc1cccc2cnccc12)NC1CC2(CCC2)Oc2cc(OC(F)F)ccc21 (racemic) [Example 54, (±) 1-(7-Difluoromethoxy-3,4-dihydro-spiro[2H-1-benzopyran-2,1′-cyclobutane]-4-yl)-3-(isoquinolin-5-yl)urea. Hydrochloride]
